# Experimental data taken from US20110207796A1, “ALPHA-SYNUCLEIN KINASE” (Elan Pharma International Limited, priority 2008, published 2011).
# Where two headings read alike, the source gives them in different places.
# Assays:
# [1] = tested on: synuclein phosphorylation by endogenous kinase; test: kinase inhibitor treatment of mouse cortical cultures (MCC), total and phospho-synuclein ELISA; assay type: cell-based
# Description: Mouse cortical cultures from fetal (i) Swiss-Webster, (ii) C56BL/6 WT and (iii) C56BL/6 E46K-Synuclein Trangenic mice were prepared and maintained in B27/DMEM/1% Penicillin-Streptomycin at 37° C./10% CO2 for three to fourteen days and then treated with kinase inhibitors.
# Cultures were exposed to inhibitors for two hours in B27/DMEM/1% Penicillin-Streptomycin. Cells were immediately washed in 100 μL of PBS plus Mg^2+ and Ca^2+, and harvested in ice-cold CEB minus EGTA plus protease inhibitors, frozen on dry ice and stored at −80° C. until processed. A Micro BCA (Pierce) total protein assay, and total synuclein and phospho-synuclein ELISAs were performed on each plate of treated cells using standard methods.
# [2] = tested on: synuclein phosphorylation by endogenous kinase; test: kinase inhibitor treatment of rat ventral mesencephalon (RVM) cultures transduced with E46K-synuclein; assay type: cell-based
# Description: (§1) Rat Ventral Mesencephalon (RVM) cultures were prepared from E15 Wistar rats. The RVM cultures were cultured for 2 days and transduced with 0.75 MOI E46K-Synuclein lentivirus alone, or 0.75 MOI E46K-Synuclein lentivirus plus 0.75 MOI ca-PLK2 lentivirus. […] Transduced cultures were maintained in neuronal media with B27/1% FBS and 37° C./5% CO2 until treated with inhibitors. On DIV 17 (which corresponds to 15 days after viral transduction of the cultures) cells were treated with inhibitors for two hours. Cells were then harvested as detailed above in neuronal media with B27/1% FBS. A Micro BCA (Pierce) total protein assay, and total synuclein and phospho-synuclein ELISAs were performed on each plate of treated cells using standard methods.
# [3] = tested on: synuclein phosphorylation by constitutively active PLK2 (caPLK2); test: kinase inhibitor treatment of RVM cultures transduced with E46K-synuclein plus ca-PLK2; assay type: cell-based; conditions: rat ventral mesencephalon cultures
# Description: as §1
# [4] = biological target: T1, PLK2 (Homo sapiens, UniProt Q9NYY3); test: in vitro biochemical assay of PLK2-driven synuclein phosphorylation
# T1 sequence (Q9NYY3 whole entry): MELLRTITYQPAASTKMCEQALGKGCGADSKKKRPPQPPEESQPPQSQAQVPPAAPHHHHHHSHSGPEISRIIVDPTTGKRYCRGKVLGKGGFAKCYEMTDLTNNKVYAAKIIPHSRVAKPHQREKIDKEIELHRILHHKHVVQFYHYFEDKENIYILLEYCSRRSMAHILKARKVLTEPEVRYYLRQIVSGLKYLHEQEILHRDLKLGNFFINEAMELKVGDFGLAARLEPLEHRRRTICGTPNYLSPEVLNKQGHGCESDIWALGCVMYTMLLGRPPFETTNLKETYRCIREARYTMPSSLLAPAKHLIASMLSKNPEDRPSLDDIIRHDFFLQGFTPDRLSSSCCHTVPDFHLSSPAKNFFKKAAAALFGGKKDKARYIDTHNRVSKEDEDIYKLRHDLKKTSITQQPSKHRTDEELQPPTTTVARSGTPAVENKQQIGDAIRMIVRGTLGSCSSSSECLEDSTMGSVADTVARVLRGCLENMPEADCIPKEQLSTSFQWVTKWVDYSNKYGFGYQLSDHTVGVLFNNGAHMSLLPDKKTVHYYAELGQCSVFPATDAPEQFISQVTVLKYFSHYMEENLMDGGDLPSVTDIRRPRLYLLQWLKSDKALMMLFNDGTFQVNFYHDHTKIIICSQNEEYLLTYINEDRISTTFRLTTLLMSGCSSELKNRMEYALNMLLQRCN
# Description: The reaction was incubated at 37° C. The activity was analyzed by autoradiography.
# In vitro biochemical assays using each of the four PLK family members as the kinase to phosphorylate synuclein were conducted.
# [5] = tested on: endogenous kinase (synuclein phosphorylation); test: HEK-293 cells overexpressing synuclein with empty vector, inhibition of synuclein phosphorylation; assay type: cell-based, human; conditions: 293 cells; for EC50: Homo sapiens, HEK293, Table 18, read-out: EC50, Endogenous Kinase (293)
# Description: (§2) All vectors had the sequence coding for the protein of interest. Transfection was accomplished using Lipofectamine 2000 (Invitrogen, Carlsbad, Calif.) with 0.08 μg vector. Cells were washed and harvested 48 hours post-transfection. A Micro BCA (Pierce) total protein assay and total synuclein and phospho-synuclein ELISAs were performed on each plate of treated cells.
# [6] = biological target: T1, PLK2; test: HEK-293 cells overexpressing synuclein and PLK2, inhibition of synuclein phosphorylation; assay type: cell-based; parameters: expressed in transfected cells; host or cells: HEK-293
# Description: as §2
# [7] = tested on: synuclein phosphorylation; test: overexpression of PLK family members with WT-synuclein in HEK-293 cells, phospho-synuclein ELISA; assay type: cell-based, human
# Description: as §2, with “HEK-293 naïve cells were transfected with an expression vector encoding PLK1, PLK2, PLK3, or PLK4 under the control of a CMV promoter, or empty vector, together with an expression vector encoding WT-synuclein. All” for “All”
# [8] = tested on: synuclein phosphorylation (serine-129); test: inhibition of synuclein phosphorylation across the cellular paradigms (primary neuronal cultures and 293 cells); assay type: cell-based, mouse, rat and human; conditions: Homo sapiens, HEK293, read-out: EC50 inhibition of synuclein phosphorylation, cellular paradigms
# [9] = tested on: brain p-synuclein (p-Ser129); test: in vivo inhibition of phosphorylation of synuclein in wild-type FVB mice, brain western blot; parameters: species or system mouse; conditions: IV tail vein 50 mg/kg
# Description: The examples above describe the identification and in vitro validation of polo-like kinase 2 (PLK2) as an α-synuclein Ser 129-specific kinase. This example describes the ability of a kinase inhibitor (BI 2561) to decrease phosphorylation of α-synuclein in vivo. Wild-type FVB mice were treated by IV tail vein with 50 mg/kg of the PLK-specific inhibitor. Total α-synuclein and p-synuclein levels in brain (p-Ser129) were analyzed by western blot.
# [10] = E46K-Synuclein transgenic mouse cortical cultures, read-out: EC50, E46K-Syn TG MCC
# [11] = WT mouse cortical cultures, read-out: EC50, WT-MCC
# [12] = in vitro PLK2-driven synuclein phosphorylation, read-out: IC50, Straight Biochemical
molecule,measurement,setting,value
COC[C@H]1OC(=O)c2coc3c2[C@@]1(C)C1=C(C3=O)[C@@H]2CCC(=O)[C@@]2(C)C[C@H]1OC(C)=O [Wortmannin],EC50,[1]; [10],> 100 µM
same,EC50,[1]; [11],> 100 µM
same,EC50,[2],> 100 µM
same,EC50,[3],> 100 µM
same,IC50,[4]; [12],> 100 µM
same,EC50,[5],> 100 µM
same,EC50,[6],> 100 µM
Over-Expressed PLK1,Proportion of total synuclein that is phoshorylated at ser-129,"[7]; 48 hours post-transfection, with WT-synuclein",4.1%
same,Fold Change in Percent Synuclein Phosphorylation,[7]; relative to endogenous kinase (2.0%),2.1
COC(=O)[C@@]1(O)C[C@H]2O[C@]1(C)n1c3ccccc3c3c4c(c5c6ccccc6n2c5c31)C(=O)NC4 [Compound K252A],"rank order of potency, E46K-Syn TG MCC",[1]; E46K-Synuclein transgenic mouse cortical cultures,2
same,EC50,[1]; [10],3.1 µM
same,"rank order of potency, Swiss-Webster MCC",[1]; Swiss-Webster mouse cortical cultures,2
same,EC50,"[1]; Swiss-Webster mouse cortical cultures, read-out: EC50, Swiss-Webster MCC",2.9 µM
same,"rank order of potency, WT-MCC",[1]; WT mouse cortical cultures,2
same,EC50,[1]; [11],3 µM
same,EC50,[2],3.2 µM
same,"rank order of potency, RVM E46K-Synuclein",[2],3
same,EC50,[3],3.5 µM
same,"rank order of potency, RVM E46K-Synuclein caPLK2",[3],2
same,EC50,[8],3 to 7 µM
same,"rank order of potency, Straight Biochemical",[4],4
same,IC50,"[4]; PLK2-driven synuclein phosphorylation, read-out: IC50 in the in vitro biochemical assay",> 10 µM
same,IC50,[4]; [12],> 10 µM
same,"rank order of potency, Endogenous Kinase (293)",[5]; Table 19,2
same,EC50,[5],3.6 µM
same,"rank order of potency, Over-Expressed PLK2 (293)",[6],2
same,EC50,"[6]; 293 cells, Table 18, read-out: EC50, Over-Expressed PLK2 (293)",7.1 µM
CC[C@@H]1C(=O)N(C)c2cnc(Nc3ccc(C(=O)NC4CCN(C)CC4)cc3OC)nc2N1C1CCCC1 [BI 2561],"total α-synuclein levels in brain, western blot",[9],no effect
same,"brain p-synuclein levels (p-Ser129), western blot",[9]; from 1 hour to 6 hours after treatment,clear decrease
